# Test results reported in ChEMBL document CHEMBL1255262, “Antimicrobial activity of omiganan pentahydrochloride against contemporary fungal pathogens responsible for catheter-associated infections” (2008).
# Peptide text beside a SMILES is read from it.
# Key:
# Assay type in all cases: functional
# Curvularia = assay: Antifungal activity against Curvularia species after 48 hrs by broth microdilution
# Candida parapsilosis [1] = assay: Antifungal activity against Candida parapsilosis assessed as susceptible isolates after 48 hrs by broth microdilution
# Candida parapsilosis [2] = assay: Antifungal activity against Candida parapsilosis assessed as resistant isolates after 48 hrs by broth microdilution
# Pichia kudriavzevii [3] = assay: Antifungal activity against Candida krusei after 48 hrs by broth microdilution
# Nakaseomyces glabratus [4] = assay: Antifungal activity against Candida glabrata after 48 hrs by broth microdilution
# Pichia kudriavzevii [5] = assay: Antifungal activity against Candida krusei assessed as susceptible isolates after 48 hrs by broth microdilution
# Candida albicans [6] = assay: Antifungal activity against Candida albicans assessed as susceptible isolates after 48 hrs by broth microdilution
# Pichia kudriavzevii [7] = assay: Antifungal activity against Candida krusei assessed as resistant isolates after 48 hrs by broth microdilution
# Nakaseomyces glabratus [8] = assay: Antifungal activity against Candida glabrata assessed as resistant isolates after 48 hrs by broth microdilution
# Candida parapsilosis [9] = assay: Antifungal activity against Candida parapsilosis after 48 hrs by broth microdilution
# Candida tropicalis [10] = assay: Antifungal activity against Candida tropicalis assessed as susceptible isolates after 48 hrs by broth microdilution
# Penicillium sp. = assay: Antifungal activity against Penicillium sp. after 48 hrs by broth microdilution
# Candida tropicalis [11] = assay: Antifungal activity against Candida tropicalis after 48 hrs by broth microdilution
# Paecilomyces variotii = assay: Antifungal activity against Paecilomyces variotii after 48 hrs by broth microdilution
# Candida tropicalis [12] = assay: Antifungal activity against Candida tropicalis assessed as resistant isolates after 48 hrs by broth microdilution
# Nakaseomyces glabratus [13] = assay: Antifungal activity against Candida glabrata assessed as susceptible isolates after 48 hrs by broth microdilution
# Aspergillus sp. = assay: Antifungal activity against Aspergillus sp. after 48 hrs by broth microdilution
# Fusarium sp. = assay: Antifungal activity against Fusarium sp. after 48 hrs by broth microdilution
# Candida albicans [14] = assay: Antifungal activity against Candida albicans after 48 hrs by broth microdilution
# Talaromyces marneffei = assay: Antifungal activity against Penicillium marneffei after 48 hrs by broth microdilution
# Candida albicans [15] = assay: Antifungal activity against Candida albicans assessed as resistant isolates after 48 hrs by broth microdilution
Molecule,MIC50 (Curvularia),MIC90 (Curvularia),MIC50 (Pichia kudriavzevii [3]),MIC90 (Pichia kudriavzevii [3]),MIC50 (Nakaseomyces glabratus [4]),MIC90 (Nakaseomyces glabratus [4]),MIC50 (Penicillium sp.),MIC90 (Penicillium sp.),MIC50 (Candida tropicalis [11]),MIC90 (Candida tropicalis [11]),MIC50 (Paecilomyces variotii),MIC90 (Paecilomyces variotii),MIC50 (Aspergillus sp.),MIC90 (Aspergillus sp.),MIC50 (Fusarium sp.),MIC90 (Fusarium sp.),MIC50 (Candida albicans [14]),MIC90 (Candida albicans [14]),MIC50 (Talaromyces marneffei),MIC90 (Talaromyces marneffei),other results
CCC(C)n1ncn(-c2ccc(N3CCN(c4ccc(OCC5COC(Cn6cncn6)(c6ccc(Cl)cc6Cl)O5)cc4)CC3)cc2)c1=O (centres undefined) [ITRACONAZOLE],0.06 µg/mL,> 16 µg/mL,0.5 µg/mL,0.5 µg/mL,0.12 µg/mL,0.5 µg/mL,0.06 µg/mL,> 16 µg/mL,0.03 µg/mL,0.12 µg/mL,0.06 µg/mL,> 16 µg/mL,0.03 µg/mL,0.06 µg/mL,0.06 µg/mL,> 16 µg/mL,0.12 µg/mL,16 µg/mL,0.06 µg/mL,> 16 µg/mL,Activity (Candida parapsilosis [1]): 63.6%; Activity (Candida parapsilosis [2]): 0%; Activity (Pichia kudriavzevii [5]): 10%; Activity (Candida albicans [6]): 50%; Activity (Pichia kudriavzevii [7]): 0%; Activity (Nakaseomyces glabratus [8]): 4.6%; MIC50 (Candida parapsilosis [9]; Lodderomyces parapsilosis): 0.06 µg/mL; MIC90 (Candida parapsilosis [9]; Lodderomyces parapsilosis): 0.25 µg/mL; Activity (Candida tropicalis [10]): 100%; Activity (Candida tropicalis [12]): 0%; Activity (Nakaseomyces glabratus [13]): 72.7%; Activity (Candida albicans [15]): 48.1%
C[C@@H]1[C@H](O)[C@@H](C)/C=C/C=C/C=C/C=C/C=C/C=C/C=C/[C@H](O[C@@H]2O[C@H](C)[C@@H](O)[C@H](N)[C@@H]2O)C[C@@H]2O[C@](O)(C[C@@H](O)C[C@@H](O)[C@H](O)CC[C@@H](O)C[C@@H](O)CC(=O)O[C@H]1C)C[C@H](O)[C@H]2C(=O)O [AMPHOTERICIN B],0.25 µg/mL,0.5 µg/mL,1 µg/mL,2 µg/mL,1 µg/mL,1 µg/mL,0.25 µg/mL,0.5 µg/mL,1 µg/mL,1 µg/mL,0.25 µg/mL,0.5 µg/mL,0.5 µg/mL,1 µg/mL,0.25 µg/mL,0.5 µg/mL,1 µg/mL,1 µg/mL,0.25 µg/mL,0.5 µg/mL,MIC (Candida parapsilosis [9]; Lodderomyces parapsilosis): 1 µg/mL; MIC50 (Candida parapsilosis [9]; Lodderomyces parapsilosis): 1 µg/mL; MIC90 (Candida parapsilosis [9]; Lodderomyces parapsilosis): 1 µg/mL
C[C@@H](c1ncncc1F)[C@](O)(Cn1cncn1)c1ccc(F)cc1F [VORICONAZOLE],0.25 µg/mL,2 µg/mL,0.25 µg/mL,0.5 µg/mL,0.06 µg/mL,2 µg/mL,0.25 µg/mL,2 µg/mL,0.015 µg/mL,16 µg/mL,0.25 µg/mL,2 µg/mL,0.25 µg/mL,0.25 µg/mL,0.25 µg/mL,2 µg/mL,0.03 µg/mL,> 16 µg/mL,0.25 µg/mL,2 µg/mL,Activity (Candida parapsilosis [1]): 100%; Activity (Candida parapsilosis [2]): 0%; Activity (Pichia kudriavzevii [5]): 100%; Activity (Candida albicans [6]): 75%; Activity (Pichia kudriavzevii [7]): 0%; Activity (Nakaseomyces glabratus [8]): 0%; MIC50 (Candida parapsilosis [9]; Lodderomyces parapsilosis): 0.015 µg/mL; MIC90 (Candida parapsilosis [9]; Lodderomyces parapsilosis): 0.12 µg/mL; Activity (Candida tropicalis [10]): 72.7%; MIC (Candida tropicalis [11]): 0.015 µg/mL; Activity (Candida tropicalis [12]): 27.3%; Activity (Nakaseomyces glabratus [13]): 86.4%; Activity (Candida albicans [15]): 25%
NYSTATIN,8 µg/mL,16 µg/mL,8 µg/mL,8 µg/mL,8 µg/mL,8 µg/mL,8 µg/mL,16 µg/mL,8 µg/mL,8 µg/mL,8 µg/mL,16 µg/mL,16 µg/mL,16 µg/mL,8 µg/mL,16 µg/mL,8 µg/mL,8 µg/mL,8 µg/mL,16 µg/mL,MIC50 (Candida parapsilosis [9]): 8 µg/mL; MIC90 (Candida parapsilosis [9]): 8 µg/mL
Nc1nc(=O)[nH]cc1F [FLUCYTOSINE],> 64 µg/mL,> 64 µg/mL,16 µg/mL,32 µg/mL,0.06 µg/mL,0.06 µg/mL,> 64 µg/mL,> 64 µg/mL,0.06 µg/mL,0.12 µg/mL,> 64 µg/mL,> 64 µg/mL,> 64 µg/mL,> 64 µg/mL,> 64 µg/mL,> 64 µg/mL,0.12 µg/mL,1 µg/mL,> 64 µg/mL,> 64 µg/mL,Activity (Candida parapsilosis [1]): 100%; Activity (Candida parapsilosis [2]): 0%; Activity (Pichia kudriavzevii [5]): 0%; Activity (Candida albicans [6]): 100%; Activity (Pichia kudriavzevii [7]): 30%; Activity (Nakaseomyces glabratus [8]): 0%; MIC50 (Candida parapsilosis [9]; Lodderomyces parapsilosis): 0.12 µg/mL; MIC90 (Candida parapsilosis [9]; Lodderomyces parapsilosis): 0.12 µg/mL; Activity (Candida tropicalis [10]): 100%; MIC (Candida tropicalis [11]): 0.06 µg/mL; Activity (Candida tropicalis [12]): 0%; Activity (Nakaseomyces glabratus [13]): 100%; Activity (Candida albicans [15]): 0%
OC(Cn1cncn1)(Cn1cncn1)c1ccc(F)cc1F [FLUCONAZOLE],> 64 µg/mL,> 64 µg/mL,32 µg/mL,64 µg/mL,4 µg/mL,> 64 µg/mL,> 64 µg/mL,> 64 µg/mL,0.25 µg/mL,> 64 µg/mL,> 64 µg/mL,> 64 µg/mL,> 64 µg/mL,> 64 µg/mL,> 64 µg/mL,> 64 µg/mL,1 µg/mL,> 64 µg/mL,> 64 µg/mL,> 64 µg/mL,Activity (Candida parapsilosis [1]): 81.8%; Activity (Candida parapsilosis [2]): 0%; MIC (Pichia kudriavzevii [3]): 32 µg/mL; Activity (Pichia kudriavzevii [5]): 0%; Activity (Candida albicans [6]): 67.3%; Activity (Pichia kudriavzevii [7]): 100%; Activity (Nakaseomyces glabratus [8]): 18.2%; MIC (Candida parapsilosis [9]; Lodderomyces parapsilosis): 0.5 µg/mL; MIC50 (Candida parapsilosis [9]; Lodderomyces parapsilosis): 0.5 µg/mL; MIC90 (Candida parapsilosis [9]; Lodderomyces parapsilosis): 16 µg/mL; Activity (Candida tropicalis [10]): 81.8%; Activity (Candida tropicalis [12]): 18.2%; Activity (Nakaseomyces glabratus [13]): 77.3%; Activity (Candida albicans [15]): 30.8%
CC[C@H](C)[C@H](N)C(=O)N[C@@H](CC(C)C)C(=O)N[C@@H](CCCNC(=N)N)C(=O)N[C@@H](Cc1c[nH]c2ccccc12)C(=O)N1CCC[C@H]1C(=O)N[C@@H](Cc1c[nH]c2ccccc12)C(=O)N[C@@H](Cc1c[nH]c2ccccc12)C(=O)N1CCC[C@H]1C(=O)N[C@@H](Cc1c[nH]c2ccccc12)C(=O)N[C@@H](CCCNC(=N)N)C(=O)N[C@@H](CCCNC(=N)N)C(=O)N[C@@H](CCCCN)C(N)=O.Cl.Cl.Cl.Cl.Cl [OMIGANAN PENTAHYDROCHLORIDE] (H-ILRWPWWPWRRK-NH2),64 µg/mL,256 µg/mL,64 µg/mL,128 µg/mL,256 µg/mL,256 µg/mL,64 µg/mL,256 µg/mL,32 µg/mL,32 µg/mL,64 µg/mL,256 µg/mL,128 µg/mL,1020 µg/mL,64 µg/mL,256 µg/mL,64 µg/mL,128 µg/mL,64 µg/mL,256 µg/mL,MIC50 (Candida parapsilosis [9]; Lodderomyces parapsilosis): 128 µg/mL; MIC90 (Candida parapsilosis [9]; Lodderomyces parapsilosis): 256 µg/mL
